Source: PMC4821188 (Biological chemistry, 2010)
Several values for one entry are separate records, joined by “and”; a condition that tells them apart may be missing. Equal values may be shown once. *: point of attachment. EDDnp = O=[N+]([O-])c1ccc(NCCN*)c([N+](=O)[O-])c1; AMC = Cc1cc(=O)oc2cc(N*)ccc12

Key:
Recombinant human furin [1] = biological target: T1, Recombinant human furin (Homo sapiens, UniProt P09958); type: biochemical; settings: for kcat / kcat/Km / Km / hydrolysis by furin (result in words, cell spans kcat, Km, kcat/Km and R): pH 7
Recombinant human furin [2] = biological target: T1, Recombinant human furin; type: biochemical; settings: 4 μM substrate; 10 mM MES, 1 mM CaCl2, 0.01% Triton X-100, pH 7.0, 36.5 °C
Kex2 = biological target: T2, Kex2 (Saccharomyces cerevisiae, UniProt P13134); type: biochemical, S. cerevisiae; settings: in the absence of Mg^2+
T2 sequence (P13134 114-613 limits assumed): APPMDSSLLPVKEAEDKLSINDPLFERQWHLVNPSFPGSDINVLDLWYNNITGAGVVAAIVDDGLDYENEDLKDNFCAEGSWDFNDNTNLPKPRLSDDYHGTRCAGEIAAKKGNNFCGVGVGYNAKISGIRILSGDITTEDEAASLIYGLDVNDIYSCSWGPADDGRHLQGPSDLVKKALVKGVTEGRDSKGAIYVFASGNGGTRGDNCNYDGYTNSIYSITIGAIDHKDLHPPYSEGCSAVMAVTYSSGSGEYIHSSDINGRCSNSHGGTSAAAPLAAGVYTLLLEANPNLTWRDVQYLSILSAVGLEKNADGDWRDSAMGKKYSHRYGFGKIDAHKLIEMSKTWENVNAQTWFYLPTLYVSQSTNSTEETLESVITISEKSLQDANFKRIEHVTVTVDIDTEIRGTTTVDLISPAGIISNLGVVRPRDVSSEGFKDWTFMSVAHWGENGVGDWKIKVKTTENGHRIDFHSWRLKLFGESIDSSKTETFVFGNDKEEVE

Recombinant human furin [3] = biological target: T1, Recombinant human furin; type: biochemical

T1 sequence (P09958 108-715 limits assumed): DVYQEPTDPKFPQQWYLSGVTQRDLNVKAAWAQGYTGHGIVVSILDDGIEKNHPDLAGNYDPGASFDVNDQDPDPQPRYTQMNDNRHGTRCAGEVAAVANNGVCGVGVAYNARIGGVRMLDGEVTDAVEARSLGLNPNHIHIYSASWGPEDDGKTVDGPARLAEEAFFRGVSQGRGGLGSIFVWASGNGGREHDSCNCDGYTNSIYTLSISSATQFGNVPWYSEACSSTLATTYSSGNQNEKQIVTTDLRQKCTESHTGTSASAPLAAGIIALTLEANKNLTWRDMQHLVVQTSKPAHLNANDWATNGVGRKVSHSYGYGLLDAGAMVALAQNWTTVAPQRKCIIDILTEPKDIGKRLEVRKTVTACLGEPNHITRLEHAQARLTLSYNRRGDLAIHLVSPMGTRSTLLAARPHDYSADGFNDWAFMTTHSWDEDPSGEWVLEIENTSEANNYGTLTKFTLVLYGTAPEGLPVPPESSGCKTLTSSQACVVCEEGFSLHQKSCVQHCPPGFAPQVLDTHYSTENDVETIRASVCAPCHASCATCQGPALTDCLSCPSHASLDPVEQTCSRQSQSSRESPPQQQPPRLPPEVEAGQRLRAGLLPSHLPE

Row | Compound | R: relative kcat/Km values in presence vs. absence of MgCl2 (Recombinant human furin [1]) | kcat (Recombinant human furin [1]) | kcat/Km (Recombinant human furin [1]) | Km (Recombinant human furin [1]) | effect on the rate of hydrolysis of Abz-[…]-Q-EDDnp by furin (Recombinant human furin [2]) | hydrolysis by furin (result in words, cell spans kcat, Km, kcat/Km and R) (Recombinant human furin [1]) | kcat/Km for hydrolysis by kex2 (Kex2) [M⁻¹ s⁻¹] | pK1 of pH-profile of furin hydrolysis (Recombinant human furin [3])
1 | SRRKRR↓DVTP [compound 6] | 3.2 | 9.9 (9.2) s^−1 | 66000 (20467) (mM.s)^−1 | – | – | – | – | –
2 | KIRRRR↓DVVD [compound 26] | 8.9 | 3.1 (0.60) s^−1 | 53448 (6000) (mM.s)^−1 | 0.05 µM and 0.1 µM | – | – | – | –
3 | LKRRRR↓DTQQ [compound 30] | 0.6 | 6.7 (0.61) s^−1 | 1303 (2184) (mM.s)^−1 | – | – | – | – | –
4 | RRRKKR↓SLSG [compound 47] | 14 | 4.5(0.92) s^−1 | 18833 (1333) (mM.s)^−1 | – | – | – | – | –
5 | [Cl-].[K+] [KCl] | – | – | – | – | increased the rate of hydrolysis | – | – | –
6 | Abz-RRRKKR↓GLFG-Q-EDDnp [compound 31] | – | 5.0 s⁻¹ | 322 mM/s | 15.5 µM | – | – | – | –
7 | NTRSRR↓SVPV [compound 29] | – | – | – | – | – | Slow Hydrolysis | – | –
8 | SRRSRR↓SLTV [compound 12] | – | 6.2 (4.3) s^−1 | 15923 (5328) (mM.s)^−1 | – | – | – | – | –
9 | SIRHKR↓EPSV [compound 20] | 0.9 | 1.6 (2.1) s^−1 | 646 (729) (mM.s)^−1 | 2.4 µM and 2.8 µM | – | – | – | –
10 | TRRFRR↓SITE [compound 34] | 1.3 | 19.8 (16.4) s^−1 | 37358 (28362) (mM.s)^−1 | 0.53 µM and 0.58 µM | – | – | – | –
11 | Abz-RERRRKKR↓GLFG-Q-EDDnp [peptide 48] | 79 | 12.3(2.6) s^−1 | 123000 (1555) (mM.s)^−1 | – | – | – | – | –
12 | Abz-LDKR↓EAE-Q-EDDnp | – | – | – | – | – | – | 353000 | –
13 | QSRRRR↓QTPP [compound 41] | 0.05 | 3.4 (6.3) s^−1 | 1547 (31067) (mM.s)^−1 | – | – | – | – | –
14 | HNRTKR↓STDG [compound 23] | 28 | 7.8 (0.26) s^−1 | 8210 (289) (mM.s)^−1 | 0.95 µM and 0.87 µM | – | – | – | –
15 | RRRKKR↓SLFG [compound 46] | 54 | 7.6 (1.0) s^−1 | 33043 (606) (mM.s)^−1 | – | – | – | – | –
16 | RKRRKR↓ELET [compound 27] | 8.5 | 4.3 (0.23) s^−1 | 1400 (164) (mM.s)^−1 | – | – | – | – | –
17 | SKRSRR↓SVSV [compound 13] | 1.5 | 18.3 (10.5) s^−1 | 37347(25362) (mM.s)^−1 | 0.49 µM and 0.41 µM | – | – | – | –
18 | [Cl-].[Cl-].[Mg+2] [Mg^2+, magnesium chloride] | – | – | – | – | significant increase | – | – | –
19 | RRRAKR↓SPKH [compound 35] | 6.2 | 5.3 (8.7) s^−1 | 4383 (710) (mM.s)^−1 | – | – | – | – | –
20 | SRRKRR↓SAST [compound 22] | 38 | 11.1 (10.0) s^−1 | 76232 (1992) (mM.s)^−1 | – | – | – | – | –
21 | Abz-SGRSRRAIDLQ-EDDnp [peptide 10] | 3.0 | 6.2 (4.3) s^−1 | 15923 (5328) (mM.s)^−1 | – | – | – | – | –
22 | HRRDKR↓SVAL [compound 17] | 0.6 | 12.7 (9.5) s^−1 | 23091 (36615) (mM.s)^−1 | – | – | – | – | –
23 | Abz-GIRRKRSVSHQ-EDDnp [compound 19] | 0.9 | 29.6 (30.3) s^−1 | 70547 (77100) (mM.s)^−1 | 0.42 µM and 0.39 µM | – | – | – | –
24 | RRRDKR↓SVAL [compound 15] | 0.8 | 12.2 (14.6) s^−1 | 29658 (37505) (mM.s)^−1 | 0.41 µM and 0.39 µM | – | – | – | –

Row | Compound | R: relative kcat/Km values in presence vs. absence of MgCl2 (Recombinant human furin [1]) | kcat (Recombinant human furin [1]) | kcat/Km (Recombinant human furin [1]) | Km (Recombinant human furin [1]) | effect on the rate of hydrolysis of Abz-[…]-Q-EDDnp by furin (Recombinant human furin [2]) | hydrolysis by furin (result in words, cell spans kcat, Km, kcat/Km and R) (Recombinant human furin [1]) | kcat/Km for hydrolysis by kex2 (Kex2) [M⁻¹ s⁻¹] | pK1 of pH-profile of furin hydrolysis (Recombinant human furin [3])
25 | THRTRR↓STSD [compound 24] | 11 | 8.1 (0.44) s^−1 | 4128 (370) (mM.s)^−1 | 1.9 µM and 1.2 µM | – | – | – | –
26 | HRREKR↓SVAL [compound 16] | 0.7 | 7.6 (12.2) s^−1 | 38300 (55636) (mM.s)^−1 | 0.2 µM and 0.22 µM | – | – | – | –
27 | Abz-RKRSRRQVNTQ-EDDnp [peptide 1] | 44 | 11.3 (8.4) s^−1 | 56300 (1291) (mM.s)^−1 | – | – | – | – | 5.46 and 5.67
28 | VQREKR↓AVGI [compound 18] | 3.2 | 2.7 (1.2) s^−1 | 1290 (407) (mM.s)^−1 | 2.1 µM and 2.8 µM | – | – | – | –
29 | HKREKR↓QAKH [compound 39] | 0.1 | 6.3 (6.9) s^−1 | 2354 (17734) (mM.s)^−1 | – | – | – | – | –
30 | NLRRRR↓DLVD [compound 28] | 7.2 | 3.5 (2.0) s^−1 | 10606 (1470) (mM.s)^−1 | – | – | – | – | –
31 | [Cl-].[Na+] [NaCl] | – | – | – | – | no effect | – | – | –
32 | QIRAKR↓ELSK [compound 2] | 6.9 | 6.7 (9.7) s^−1 | 5583 (808) (mM.s)^−1 | – | – | – | – | –
33 | VRRRRR↓YALS [compound 43] | – | 0.60 s⁻¹ | 193 mM/s | 3.14 µM | – | – | – | –
34 | SSRHRR↓ALDT [compound 36] | 0.3 | 7.1 (5.6) s^−1 | 1707 (6488) (mM.s)^−1 | – | – | – | – | –
35 | Ac-RVRR-{AMC} [compound 38, reference compound] | 0.1 | 0.59 (0.98) s^−1 | 120 (1139) (mM.s)^−1 | – | – | – | – | –
36 | MMRHRR↓ELQR [compound 7] | 1.7 | 10.3 (16.2) s^−1 | 23409 (13508) (mM.s)^−1 | – | – | – | – | –
37 | LRRRRR↓DAGN [compound 25] | 9.9 | 12.3 (1.1) s^−1 | 3455 (348) (mM.s)^−1 | 3.6 µM and 3.3 µM | – | – | – | –
38 | KKRKRR↓FLGF [compound 33] | 4.2 | 1.1 (0.64) s^−1 | 2173 (512) (mM.s)^−1 | – | – | – | – | –
39 | Abz-SRRHKR↓FAGV-Q-EDDnp (Abz-SRRHKRFAGVQ-EDDnp) [peptide 32] | 60 | 2.4 (0.21) s^−1 | 33857 (559) (mM.s)^−1 | – | – | – | – | 5.27 and 5.42
40 | KRRQRR↓RPPQ [compound 21] | – | – | – | – | – | Slow Hydrolysis | – | –
41 | LTRQRR↓SLLP [compound 8] | 1.3 | 3.3 (1.8) s^−1 | 3510 (2708) (mM.s)^−1 | 0.9 µM and 0.64 µM | – | – | – | –
42 | RRRKKR↓GLSG [compound 45] | 38 | 6.7 (2.4) s^−1 | 30500 (797) (mM.s)^−1 | – | – | – | – | –
43 | GQRKKR↓ALDT [compound 40] | 0.06 | 3.6 (3.9) s^−1 | 829 (14130) (mM.s)^−1 | – | – | – | – | –
44 | HRRQKR↓SVAL [compound 14] | 1.2 | 14.9 (9.2) s^−1 | 40270 (32431) (mM.s)^−1 | 0.37 µM and 0.28 µM | – | – | – | –
45 | Abz-YKR↓EAD-Q-EDDnp | – | – | – | – | – | – | 7.939e+06 | –
46 | RNRQKR↓FVLS [compound 42] | – | 0.20 s⁻¹ | 337 mM/s | 0.59 µM | – | – | – | –
47 | HHRQRR↓SVSI [compound 37] | 0.1 | 28.9 (39.5) s^−1 | 9031 (116088) (mM.s)^−1 | – | – | – | – | –
48 | VVRVRR↓ELLP [compound 5] | 3.8 | 16.6 (12.2) s^−1 | 13071 (3466) (mM.s)^−1 | – | – | – | – | –
